# Assay results: US20140272947A1, “METHODS AND COMPOSITIONS FOR SCREENING MODULATORS OF ONCOGENE-INDUCED SENESCENCE” (Fox Chase Cancer Center, priority 2013, published 2014)
# Tests used:
# [1] = system: primary fibroblasts (IMR90) transduced with H-RasG12V; test: Validation: manual quantification of SA-β-gal positive cells; format: cell-based, human; conditions: for % SA-β-Gal + Cells Avg: 250 nM inhibitor, +H-RasG12V IMR90, 7 additional days, >300 cells counted, triplicate
# Protocol: Senescence-associated β-galactosidase (SA-β-Gal) assay has previously been described^9. Briefly, cells were fixed in 2% formaldehyde and 0.2% glutaraldehyde and washed with phosphate-buffered saline. Staining solution [40 mM Na2HPO4, 150 mM NaCl, 2 mM MgCl2, 5 mM K3Fe(CN)6, 5 mM K4Fe(CN)6, 1 mg/mL X-gal] was added with a multichannel pipette, and cells were incubated for 24 hrs. Cells were stained with DAPI (0.15 μg/mL) to visualize nuclei.
# (§1) Cells with β-galactosidase (blue) positivity within the cytosol were considered positive. Cells were stained with DAPI to visualize nuclei and SAHF. Cells with punctate spots within the nuclear compartment were considered SAHF positive. Cells were imaged using a Nikon Eclipse Ni fluorescence microscope as previously described^15. Three different fields of cells were counted (total cells counted >300). These experiments were performed in triplicate. Data from validation experiments is shown as a percentage of SA-β-gal or SAHF positive cells.
# These cells were then utilized in the SA-β-gal assay to examine changes in expression of SA-β-gal activity.
# (§2) Other than the control, all of the tested compounds are +H-Ras^G12V. Percentage of SA-β-gal and SAHF positive cells is shown with indicated standard deviation (SD). Total cells with SA-β-gal positive cells or SAHF positive cells were counted in three separate fields (totals cells counted >300). Experiments were performed in triplicate. p-value determined by t-test.
# [2] = system: primary fibroblasts (IMR90) transduced with H-RasG12V; test: Validation: senescence-associated heterochromatin foci (SAHF) positive cells by DAPI staining; format: cell-based, human; conditions: for % SAHF + Cells Avg: 250 nM inhibitor, +H-RasG12V IMR90, 9 days of culture, >300 cells counted, triplicate
# Protocol: as §1
# After 9 days of culture, we stained the cells with DAPI to visualize the formation of SAHF.
# as §2
# [3] = system: primary human fibroblasts (IMR90) transduced with H-RasG12V; test: High-throughput senescence screen (SA-β-gal area and nuclei number, high-content imaging); format: cell-based; conditions: 250 nM, 96-well, normalized to DMSO control, hit = beyond one standard deviation
# Protocol: We use a model system for DIS that involves overexpressing an activated Ras in normal human fibroblast (IMR90). Upon expression of Ras, these cells undergo senescence as measured by increased β-galactosidase activity. IMR90 cells are infected with retrovirus control (496) or Ras (493). IMR90 cells were transduced over two days (Day −1 and 0) with pBABE-HRasG12V. Cells were then plated into a 96-well plate at a predetermined density (1,000 cells/well) and selected with puromycin (1 ug/mL) for two days (Day 1 and 2). The initial number of cells per well (1,000) was optimized to avoid confluence-induced growth inhibition. […] Allowing the cells to undergo senescence ([…] after puromycin selection), on day 9, cells were subjected to a quantitative SA-β-gal assay (described below) and stained with DAPI to visualize nuclei, which allowed for quantification of cell number. […]
# For the screen, four fluorescence and four phase contrast images were acquired from each well of the 96-well plates with an ImageXpress Micro high-content imaging system (Molecular Devices, Sunnyvale Calif.) using the 10× objective. […] Fluorescence images were used to record DAPI staining of cell nuclei. Images were analyzed utilizing the MultiWavelength Scoring module in METAXPRESS image analysis software (Molecular Devices). […]
# senescence = conditions: literature report; cited from earlier work
# [4] = 250 nM, RAS-expressing cells, significance p<0.05 vs DMSO
SMILES,% SA-β-Gal + Cells Avg [1] [%],% SAHF + Cells Avg [2] [%],"Inhibition of oncogenic RAS-induced SAHF formation (validation, in words) [2, 4]","Reduction of expression of SA-β-gal activity (validation, in words) [1, 4]",Effect on SA-β-gal area and cell number (nuclei) in initial screen [3],Prevention of senescence (reported) (senescence)
"Cc1nc2cc3nc(-c4cccs4)cnc3cc2n1C [22617-28-8, AGL2043]",10.9,10.2,,,,
"O=c1c2ccccc2[nH]c(=S)n1CCN1CCC(=C(c2ccc(F)cc2)c2ccc(F)cc2)CC1 [120166-69-0, Diacylglycerol Kinase Inhibitor II]",5.2,10.4,,,,
"COc1ccc(S(=O)(=O)N(CCO)c2ccccc2CN(C)CC=Cc2ccc(Cl)cc2)cc1 [139298-40-1, KN-93]",8.1,12.3,,,,
"CCc1[nH]c(-c2ccc(OC)cc2)nc1-c1ccncc1 [172747-50-1, SB 202474]",6.7,10.4,,,,
"COc1cc2ncnc(Nc3cccc(Cl)c3)c2cc1OC [175178-82-2, AG 1478]",3.8,11.5,,,,
"O=c1c(-c2ccc(F)cc2)c(-c2ccncc2)[nH]n1-c1ccc(Cl)cc1 [219138-24-6, P38 MAPK Inhibitor]",5.8,16.3,,,,
"O=C1NC(=O)C(c2cn(CCCn3ccnc3)c3ccccc23)=C1Nc1ccccc1 [257879-35-9, PKC β Inhibitor]",5.5,8.3,,,,
"O=C(Nc1ccc(Cl)cc1)c1ccccc1NCc1ccncc1 [269390-69-4, VEGFR Tyrosine Kinase Inhibitor II]",4.1,13.0,,,,
"Cn1sc(=O)n(Cc2ccccc2)c1=O [327036-89-5, GSK3β Inhibitor I]",6.5,7.8,,,,
"COc1cc2nccc(Oc3ccc(NC(=S)NC(=O)c4ccccc4C)cc3)c2cc1OC [347155-76-4, PDGFR Tyrosine Kinase Inhibitor V]",6.7,16.3,,,,
"Oc1cccc(-c2nc(N3CCOCC3)c3oc4ncccc4c3n2)c1 [371935-74-9, PI-103]",4.7,43.0,failed to prevent SAHF formation,,,
"Cc1cc(Nc2nc(-c3ccccc3)nc3ccccc23)n[nH]1 [404828-08-6, GSK-3 Inhibitor XIII]",8.2,7.0,,,,
"NC(=O)c1ccc2nc(-c3ccc(Oc4ccc(Cl)cc4)cc3)[nH]c2c1 [516480-79-8, Chk2 Inhibitor II]",7.4,13.2,,,,
"O=c1[nH]c2ccccc2n1C1CCN(Cc2ccc(-c3nc4cc5[nH]cnc5cc4nc3-c3ccccc3)cc2)CC1 [612847-09-3, Akt Inhibitor VIII]",21.3,11.3,,failed to reduce SA-β-gal activity,,
O=C1NC(=O)/C(=C/c2ccc3c(c2)OC(F)(F)O3)S1 [648449-76-7],20.7,26.9,,,no effect on SA-β-gal area or cell number,
"Cc1[nH]c(/C=C2\C(=O)Nc3ccc(S(=O)(=O)N(C)c4cccc(Cl)c4)cc32)c(C)c1C(=O)N1CCN(C)CC1 [658084-23-2, Met Kinase inhibitor]",5.0,14.7,,,,
"c1cc(-c2cnn3cc(-c4ccc(OCCN5CCCCC5)cc4)cnc23)ccn1 [866405-64-3, AMPK Compound C]",4.4,15.9,,,,reported to prevent senescence
"O=C(Nc1cccc(Nc2nccc(Nc3cccc(C(F)(F)F)c3)n2)c1)C1CC1 [879127-16-9, Aurora Kinase Inhibitor III]",5.7,15.8,,,,
